Measurements: patent US20100261700A1, “BETA-LACTAMASE INHIBITORS” (priority 2009, published 2010)

Assays:
[1] = target: T1, beta-lactamase from Enterobacter cloacae (Enterobacter cloacae, UniProt P05364); experiment: Time dependent inhibition of beta-lactamase, with dialysis to test for return of activity; assay type: biochemical; conditions: 10 mL 0.1 units/mL beta-lactamase with 500 microM inhibitor, dialysed against 1 L 0.1 M sodium phosphate buffer (pH 7.0), one exchange
T1 construct: purchased Sigma-Aldrich

[2] = target: T1, beta-lactamase from Enterobacter cloacae; experiment: Assay (I) for beta-lactamase activity, Cefesone hydrolysis (product inhibition); assay type: biochemical; conditions: reaction continued for two hours; theoretical maximal absorbance approximately 1.6; said to be consistent with product inhibition
Experimental: A chromogenic cephalosporin, Cefesone, is synthesized and isolated, for example, as described by Sutton et al. International Application WO 2009/049086 and used to monitor p-lactamase activity. A typical assay monitors the hydrolysis of Cefesone via the formation of a species which absorbs at 486 nm (molar absorptivity constant 16,000). Absorption is monitored as a function of time in 0.1 M, pH 7.0 sodium phosphate, 0.2 mM Cefesone and 4 volume percent DMSO cosolvent at 30° C. using a Beckman DU-40 spectrophotometer having a circulating water bath attached to the cuvette holder. The assay is initiated by addition and mixing of an appropriate amount of beta-lactamase.
The beta-lactamase assay using enzyme fro Enterobacter cloacae (Sigma-Aldrich, St. Louis, Mo.) was carried out as in Example 2 (assay I) above with compound 2. After the initial rate was determined the reaction was allowed to continue for two hours. Theoretical maximal absorbance at 486 nm is approximately 1.6 while the observed final absorbance was consistently 0.26.

T1 sequence (P05364 21-381): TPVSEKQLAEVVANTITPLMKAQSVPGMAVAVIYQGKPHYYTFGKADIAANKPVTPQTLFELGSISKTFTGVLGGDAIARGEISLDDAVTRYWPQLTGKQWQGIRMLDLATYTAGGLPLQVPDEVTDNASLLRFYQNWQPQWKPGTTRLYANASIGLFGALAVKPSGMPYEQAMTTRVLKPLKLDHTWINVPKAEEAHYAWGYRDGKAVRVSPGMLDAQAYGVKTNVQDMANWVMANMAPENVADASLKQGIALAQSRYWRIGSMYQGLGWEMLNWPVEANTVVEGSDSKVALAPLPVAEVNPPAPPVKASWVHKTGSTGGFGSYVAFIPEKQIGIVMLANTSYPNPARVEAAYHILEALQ

Structure (SMILES)	return of beta-lactamase activity after dialysis [1]	observed final absorbance at 486 nm [2]
O=C(Cc1ccccc1)NC1C(=O)N2C(C(=O)O)=C(/C=C/C3CC3)CSC12 (stereo not drawn) [compound 2, 3-vinylcyclopropane-7-(2-phenylacetamido)-3-Cephem-4-carboxylic acid]	no return of activity	0.26
O=C(Cc1ccccc1)NC1C(=O)N2C(C(=O)O)=C(/C=C/c3ccc(CBr)cc3)CSC12 (stereo not drawn) [compound 4, 3-(1-bromomethyl-4-vinylbenzene)-7-(2-phenylacetamido)-3-Cephem-4-carboxylic acid]	no return of activity	
